# Data taken from patent US6172112A, “Retinoids and use thereof” (priority 1999, dated 2001).
# Assays:
# RARα = biological target: T1, RARα (Homo sapiens, UniProt P10276); experiment: nuclear receptor radiolabeled competition binding, RARα
# T1 sequence (P10276 1-462): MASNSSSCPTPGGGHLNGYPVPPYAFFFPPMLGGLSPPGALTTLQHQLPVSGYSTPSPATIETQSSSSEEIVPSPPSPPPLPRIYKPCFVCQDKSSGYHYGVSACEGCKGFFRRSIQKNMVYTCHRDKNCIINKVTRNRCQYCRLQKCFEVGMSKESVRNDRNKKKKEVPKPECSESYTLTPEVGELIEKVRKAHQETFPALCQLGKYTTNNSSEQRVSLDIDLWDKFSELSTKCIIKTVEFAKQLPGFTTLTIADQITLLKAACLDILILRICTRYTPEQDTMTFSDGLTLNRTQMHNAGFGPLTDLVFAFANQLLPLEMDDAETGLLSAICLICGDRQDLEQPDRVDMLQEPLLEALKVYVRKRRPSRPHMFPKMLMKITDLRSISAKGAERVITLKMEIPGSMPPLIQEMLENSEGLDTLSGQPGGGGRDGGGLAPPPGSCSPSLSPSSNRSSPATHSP
# Protocol: (§1) For active retinoids, IC50 values were determined by titration with varying concentrations of UAB retinoids.
# RARβ = biological target: T2, RARβ (Homo sapiens, UniProt P10826); experiment: nuclear receptor radiolabeled competition binding, RARβ
# T2 construct: expressed in transfected cells; host or cells: CV-1 cells
# T2 sequence (P10826 1-455): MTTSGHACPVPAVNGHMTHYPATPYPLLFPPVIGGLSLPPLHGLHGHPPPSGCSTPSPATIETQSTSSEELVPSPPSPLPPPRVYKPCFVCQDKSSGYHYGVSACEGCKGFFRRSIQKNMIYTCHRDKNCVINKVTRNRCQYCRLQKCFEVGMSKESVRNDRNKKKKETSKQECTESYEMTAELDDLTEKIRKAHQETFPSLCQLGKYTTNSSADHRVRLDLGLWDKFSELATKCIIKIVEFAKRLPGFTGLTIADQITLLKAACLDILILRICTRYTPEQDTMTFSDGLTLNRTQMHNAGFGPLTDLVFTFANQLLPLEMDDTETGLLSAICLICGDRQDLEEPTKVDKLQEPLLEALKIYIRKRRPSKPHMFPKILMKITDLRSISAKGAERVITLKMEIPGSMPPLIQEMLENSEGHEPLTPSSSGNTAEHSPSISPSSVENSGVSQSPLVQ
# Protocol: as §1
# RARγ = biological target: T3, RARγ (Homo sapiens, UniProt P13631); experiment: nuclear receptor radiolabeled competition binding, RARγ
# T3 sequence (P13631 1-454): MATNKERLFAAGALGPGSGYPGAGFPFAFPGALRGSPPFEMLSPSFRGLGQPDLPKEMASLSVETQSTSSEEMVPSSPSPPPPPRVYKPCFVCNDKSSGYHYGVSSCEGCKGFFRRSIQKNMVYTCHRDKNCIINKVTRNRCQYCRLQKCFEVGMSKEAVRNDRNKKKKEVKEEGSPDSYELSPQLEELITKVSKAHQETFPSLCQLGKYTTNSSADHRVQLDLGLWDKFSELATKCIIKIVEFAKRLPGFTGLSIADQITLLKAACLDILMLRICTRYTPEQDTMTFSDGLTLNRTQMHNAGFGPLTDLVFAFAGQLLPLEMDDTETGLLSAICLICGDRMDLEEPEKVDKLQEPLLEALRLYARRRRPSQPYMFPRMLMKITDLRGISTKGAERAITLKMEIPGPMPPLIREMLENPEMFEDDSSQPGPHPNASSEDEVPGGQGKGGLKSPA
# Protocol: as §1
# RARα/RXRα = biological target: T4, RARα/RXRα (Homo sapiens, UniProt P10276+P19793); experiment: cell-based
# T4 sequence (P10276 1-462): T1 sequence (P10276 1-462)
# T4 sequence (P19793 1-462): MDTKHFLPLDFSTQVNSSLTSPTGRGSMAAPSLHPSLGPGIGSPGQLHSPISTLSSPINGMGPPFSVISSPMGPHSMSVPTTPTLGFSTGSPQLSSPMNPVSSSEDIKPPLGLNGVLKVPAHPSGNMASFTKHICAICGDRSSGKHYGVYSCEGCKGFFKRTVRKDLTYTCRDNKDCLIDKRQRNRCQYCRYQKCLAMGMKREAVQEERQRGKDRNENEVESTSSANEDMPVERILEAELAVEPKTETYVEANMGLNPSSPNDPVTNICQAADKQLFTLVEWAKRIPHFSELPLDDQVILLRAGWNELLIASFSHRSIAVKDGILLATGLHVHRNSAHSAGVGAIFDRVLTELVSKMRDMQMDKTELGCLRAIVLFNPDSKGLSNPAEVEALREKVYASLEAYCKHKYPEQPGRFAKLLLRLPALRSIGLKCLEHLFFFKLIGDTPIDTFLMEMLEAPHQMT
# Protocol: These assays were performed in CV-1 cells with the RAR or RXR gene and the chloramphenicol acetyltransferase (CAT) reporter gene containing TREpal with a thymidine kinase promoter [(TREpal)2 -tk-CAT]. Twenty-four hours after transfection, cells were treated with a single dose of retinoid and the cell extracts were assayed for b-galactosidase and CAT activity. The antagonistic effects of UAB30 retinoids on the transcription of RAR-α were also determined in CV-1 cells. The methods are nearly identical to those used to perform transcriptional assays. These studies utilized the CAT reporter gene [(TREpal)2 -tk-CAT]. […] After 24 hours, cells were harvested and the transcriptional effects were measured in relative CAT activity, after correction with β-galactosidase activity for transfection efficiency. […] Experiments were performed in triplicate and the data were averaged.
# HL-60 cells = experiment: retinoid induction of differentiation of HL-60 cells (NBT); assay type: cell-based; conditions: Homo sapiens, HL-60, 96 h; 4-day induction of differentiation; read-out: ED50 (nM) HL-60
# Protocol: Human leukemia cell line HL-60 and NB4 were used for measuring the ability of retinoids to induce terminal differentiation. Both cell lines are predominantly promyelocytes and are induced by retinoic acid to mature to cells with many characteristics of mature granulocytes. The induction of this differentiation is the basis for assaying one of the biological activities of retinoic acid analogues. For the differentiation assay, HL-60 or NB4 cells were grown in nutrient medium with fetal bovine serum as detailed by Breitman (15).
# The percentage of cells that gained this marker was measured microscopically. The percentage of positive cells was then plotted as a function of the retinoid concentration to determine ED50 and ED30 values used in the formation of isoboles.
smiles,measurement,setting,value
CCC1=C(C(C)C)/C(=C/C(C)=C/C=C/C(C)=C/C(=O)O)CCC1 [(all-E)-UAB8],IC50,RARα,14 nM
same,IC50,RARβ,6 nM
same,IC50,RARγ,10 nM
same,EC50,RARα/RXRα,68 nM
same,EC50,HL-60 cells,> 10000 nM
